Read-outs that look alike come from different tables or passages of the source.

In data set [1] the test system is zebrafish PXR. The conditions noted are these: luciferase reporter in HepG2 cells, normalized to 20 μM androstanol. (In general: In a reporter assay the amount or activity of a reporter protein is the signal.)
The test system of data set [2] is zebrafish PXR. To be noted: cited from earlier work.
A further data set concerns CYP3C1. The data set is described as follows: zebrafish in vivo liver transcription, semi-quantitative RT-PCR: CYP3C1. As to the method: (§1) Adult zebrafish were purchased from a commercial fish supplier and acclimatized for at least two-weeks in 20 L tanks with flow-through freshwater at 22°C. A single dose of 15 mg/kg of 5α-cyprinol, 5β-cyprinol 27-sulfate, 5α-scymnol or 5β-scymnol-27 sulfate, dissolved in saline, was injected intraperitoneally. A control group was injected with saline. After 48 hr, the animals were decapitated and livers of three fish (n = 5 each group) were removed, pooled and weighed, totalizing 15 fish per group. Fish were not fed throughout the experimental period. […].
(§2) To study the transcription of CYP3C1, ABCB5, PXR, GAPDH and β-actin genes in zebrafish, initial fragments of these genes were identified (Genbank: AW202769, Genbank: BQ284593, Genbank: AAM22215, Genbank: BC083506, Genbank: AF057040, respectively). The PCR primers for CYP3C1 were designed using MacVector Software and primers for MDR1 were designed using Primer 3 Software (Whitehead Institute for Biomedical Research; [75]). Primer pairs for amplifying CYP3C1 fragment were 5'-[…]-3' (sense) and 5'-[…]-3' (antisense) and for amplifying ABCB5 were 5'-[…]-3' (sense) and 5'-[…]-3' (antisense). The PCR primers for PXR were 5'-[…]-3' (sense) and 5'-[…]-3' (antisense), for amplifying GAPDH were 5'-[…]-3' (sense) and 5' […] 3' (antisense) and for β-actin were 5'-[…]-3' (sense) and 5'-[…]-3' (antisense). RNA was isolated using Trizol (Invitrogen) according to manufacturer's instructions. Purity and concentration of RNA of each sample were verified at 260 nm. The RNA integrity was checked by non-denaturing gel electrophoresis using 1 μg of total RNA in each sample.
(§3) Two micrograms of total RNA were reversed transcribed using Ominiscript RT Kit (Qiagen, Valencia, CA, USA). cDNA concentration was checked at 260 nm, and the amount adjusted to 1 μg to perform semi-quantitative RT-PCR. The expected size of the PXR, Cyp3C1, abcb5, GAPDH and β-actin fragments were 577, 477, 218, 234 and 550 bp, respectively. Biotools DNA polymerase (Biotools B&M Labs, S.A., Madrid, Spain) kit was used for the PCR reaction using a thermocycler Personal Mastercycler (Eppendörf) with the following PCR program: 5 cycles of 94°C for 5 s, 72°C for 35 s; 5 cycles of 94°C for 5 s, 70°C for 10 s, 72°C for 35 s; and 23, 24, 35, 15 and 24 cycles (PXR, Cyp3C1, abcb5, GAPDH and β-actin, respectively) of 94°C for 5 s, 61, 54, 48, 49 and 61°C for 10 s (PXR, Cyp3C1, abcb5, GAPDH and β-actin, respectively), and 72°C for 35 s. The PXR, CYP3C1, ABCB5 and GAPDH transcript levels were quantified using Gel-Quant™ (Multiplexed Biotechologies) and β-actin was used to normalize the data. The Shapiro-Wilk W test was used to evaluate normality. When data were parametric the analysis was performed using Student t test; otherwise Mann Whitney U test was applied. […]

The subject of data set [3] is ethoxyresorufin O-deethylase (EROD) activity (CYP1A-like activity). The data set is described as follows: EROD assay in zebrafish primary hepatocytes. To be noted: zebrafish primary hepatocytes; DIM at concentrations of 2 μM and greater. As to the method:
(§4) The cells are cultured at 26°C in ambient atmosphere.

Data set [4] relates to testosterone 6β-hydroxylation activity (CYP3A-like activity). In words: testosterone hydroxylation (HPLC) in zebrafish primary hepatocytes. As to the method:
as §4
100 μL of sample, calibration standard, or quality material standard were pipetted into separate microcentrifuge tubes and mixed with 100 μL of methanol. Samples were vortexed and centrifuged at 13,000 rpm for 4 min. The supernatant was then injected into the HPLC.
The flow rate was 1.2 mL/min and total run time was 25 min.

Another data set deals with β-actin. The data set is described as follows: zebrafish in vivo liver transcription, semi-quantitative RT-PCR: β-actin. As to the method: as §1, §2, §3
The test system of data set [5] is MDR1 (tentatively classified as ABCB5 in zebrafish). The data set is described as follows: zebrafish in vivo liver transcription, semi-quantitative RT-PCR: MDR1. As to the method:
as §1, §2, §3

The mark [6] stands for this setting: zebrafish, 15 mg/kg intraperitoneally, single dose, 48 hr.

In the case of `C[C@H](CCCC(CO)COS(=O)(=O)O)[C@H]1CC[C@H]2[C@@H]3[C@H](O)C[C@H]4C[C@H](O)CC[C@]4(C)[C@H]3C[C@H](O)[C@]12C` (stereo partly drawn) [5α-Cyprinol 27-sulfate], the “activation of recombinant zebrafish PXR” value with zebrafish PXR [1] is recorded as “all activate recombinant zebrafish PXR”. For the same molecule, the “activity at recombinant zebrafish PXR” value with zebrafish PXR [2] (ref [29],[53]) was “efficacious activator of recombinant zebrafish PXR”. Also, the “liver transcription of CYP3C1” value with CYP3C1 (setting [6]) is 1.71 ± 0.50 arbitrary units normalized to β-actin. For the same molecule, the “effect on EROD activity” value in data set [3] is listed as “found not to affect EROD activity”. The “increase in 6β-hydroxylation activity compared to vehicle-treated control” value in data set [4] is recorded as 15–20%. In addition, the “liver transcription of β-actin” value in the data set with β-actin (setting [6]) came out at 38.2 ± 20.7 arbitrary units. For the same molecule, the “liver transcription of MDR1 (ABCB5)” value in data set [5] (setting [6]) is 2.29 ± 0.75 arbitrary units normalized to β-actin.

As to `C[C@H](CCCC(CO)CO)[C@H]1CC[C@H]2[C@@H]3[C@H](O)C[C@H]4C[C@H](O)CC[C@]4(C)[C@H]3C[C@H](O)[C@]12C` [5α-Cyprinol, 5α-cholestan-3α,7α,12α,26,27-pentol], the “activity at recombinant zebrafish PXR” value with zebrafish PXR [2] is “both inactive at recombinant zebrafish PXR”. In addition, in the data set on CYP3C1 (ip, 15 mg/kg, 48 h), the “liver transcription of CYP3C1” value is 1.33 ± 0.33 arbitrary units normalized to β-actin. Further, the “liver transcription of β-actin” value in the data set with β-actin (ip, 15 mg/kg, 48 h) is 44.7 ± 19.6 arbitrary units. Also, in data set [5] (ip, 15 mg/kg, 48 h), the “liver transcription of MDR1 (ABCB5)” value is on record as 2.00 ± 1.00 arbitrary units normalized to β-actin.

(Values after PMC2263054, “Functional evolution of the vitamin D and pregnane X receptors” (BMC Evolutionary Biology, 2007).)
